ChEMBL document CHEMBL1153443, “Development of an in-capillary approach to nanoscale automated in vitro cytochromes p450 assays” (J Med Chem, 2009)

Biological target: CYP2D6 (Homo sapiens, UniProt P10635)
Assay: Inhibition of human recombinant CYP2D6 at 5 uM assessed as blockade of O-demethylation of dextromethorphan in to dextrophan by nanoscale automated in-capillary assay
Assay type: ADME
Details: recombinant CYP2D6, probe dextromethorphan (O-demethylation to dextrorphan)

Chain of CYP2D6 (P10635 whole entry): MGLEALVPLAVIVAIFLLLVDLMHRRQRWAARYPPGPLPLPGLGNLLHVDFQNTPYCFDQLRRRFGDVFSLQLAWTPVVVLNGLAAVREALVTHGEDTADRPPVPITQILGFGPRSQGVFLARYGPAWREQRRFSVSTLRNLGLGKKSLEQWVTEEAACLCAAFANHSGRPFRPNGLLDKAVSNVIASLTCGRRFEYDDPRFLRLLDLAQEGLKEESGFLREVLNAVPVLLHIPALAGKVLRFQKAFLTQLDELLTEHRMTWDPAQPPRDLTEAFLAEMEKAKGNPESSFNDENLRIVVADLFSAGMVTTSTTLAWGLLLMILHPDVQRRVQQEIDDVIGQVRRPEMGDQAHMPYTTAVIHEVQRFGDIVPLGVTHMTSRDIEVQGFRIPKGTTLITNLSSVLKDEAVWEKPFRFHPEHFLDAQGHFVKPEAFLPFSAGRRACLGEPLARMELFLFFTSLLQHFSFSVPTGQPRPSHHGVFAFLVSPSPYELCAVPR

Row | Compound | inhibition at 5 µM [%]
1 | CNCCC(Oc1ccc(C(F)(F)F)cc1)c1ccccc1 (configuration not stated) [FLUOXETINE] | 20
2 | COc1ccc(C(CN(C)C)C2(O)CCCCC2)cc1 (configuration not stated) [VENLAFAXINE] | 0
